# Measurements reported in patent publication US20230197192A1, “SELECTING NEOANTIGENS FOR PERSONALIZED CANCER VACCINE” (AMAZON TECHNOLOGIES, INC., priority 2020, published 2023).
# Where a SMILES comes first, the peptide text is derived from it. Where no end group is shown, it is not given here.
# Assay: Visible dissolution of peptides in DMSO / 0.9% NaCl for pool formulation
# Assay type: physicochemical
# Conditions: not given
# Experimental: Groups of peptides are selected and pooled. Up to four (4) pools with not more than (NMT) five (5) peptides in each pool were prepared. Each peptide was dissolved in 5.538% (v/v) DMSO followed by 0.9% NaCl solution, at a concentration of each peptide at 0.4158 mg/mL. Peptides which were visibly dissolved were accepted for that group's pool. Upon successful pooling of all peptides within a group, the pool was filtered through a 0.2 μm Nylon filter. Peptides were shipped in sterile tubes and labeled with Pool name, lot #, components, manufacturing data, quantity/concentration and storage conditions.
Compound,Solubility,Stability
SSCMGGMNQRPILTIITLED [DDDDD.9],Cloudy,
RSLTLEPDPIVVPGNVTLSVVG [GGGGG.33],,Clear
CSCC[C@H](NC(=O)[C@H](CC(C)C)NC(=O)[C@@H](NC(=O)[C@H](CCSC)NC(=O)[C@H](CC(C)C)NC(=O)[C@@H]1CCCN1C(=O)[C@H](C)NC(=O)[C@H](Cc1ccc(O)cc1)NC(=O)[C@@H]1CCCN1C(=O)[C@H](CC(=O)O)NC(=O)CNC(=O)[C@@H](NC(=O)CNC(=O)CNC(=O)[C@H](CC(C)C)NC(=O)CNC(=O)[C@H](CO)NC(=O)[C@H](Cc1ccc(O)cc1)NC(=O)[C@@H]1CCCN1)C(C)C)C(C)C)C(=O)N[C@@H](CS)C(=O)N[C@@H](CCCNC(=N)N)C(=O)N[C@H](C(=O)N[C@@H](CS)C(=O)N[C@@H](CC(C)C)C(=O)N[C@@H](CCC(=O)O)C(=O)N[C@@H](CC(=O)O)C(=O)O)C(C)C [GGGGG.17] (H-PYSGLGGVGDPYAPLMVLMCRVCLED-OH; N-terminus and C-terminus assumed),,Semi
TYPEADSFPSWAAAHRKGSS [DDDDD.20],Clear,

# Same assay, conditions: Peptide Synthesis Engineering Run Batch for Sample GGGGG; visual appearance of the peptide solution (Clear / Semi Cloudy / Cloudy)
row,Compound,Visual solubility (appearance of the peptide solution)
1,CC[C@H](C)[C@H](NC(=O)[C@H](CO)NC(=O)[C@H](CC(=O)O)NC(=O)[C@H](CCC(=O)O)NC(=O)[C@H](C)NC(=O)CN)C(=O)N[C@@H](CC(=O)O)C(=O)N[C@@H](CO)C(=O)N1CCC[C@H]1C(=O)N[C@@H](CO)C(=O)N[C@@H](C)C(=O)N[C@@H](CS)C(=O)N1CCC[C@H]1C(=O)N[C@@H](CC(C)C)C(=O)N[C@@H](CO)C(=O)N[C@H](C(=O)NCC(=O)N[C@@H](CS)C(=O)N1CCC[C@H]1C(=O)N[C@@H](C)C(=O)N[C@@H](CC(C)C)C(=O)O)[C@@H](C)O [GGGGG.21] (H-GAEDSIDSPSACPLSTGCPAL-OH; N-terminus and C-terminus assumed),Clear
2,MSYELKCAQELSQKQDG [GGGGG.31],Clear
3,VSPDIFMQSHL [GGGGG.40],Clear
4,STAPAEATL [GGGGG.44],Clear
5,YSGIQESSSASPLSIKKCPI [GGGGG.29],Clear
6,LAPGQPFL [GGGGG.50],Clear
7,QAYNALTL [GGGGG.41],Clear
8,APGSSRLA [GGGGG.43],Clear
9,SLCQAPPL [GGGGG.48],Clear
10,VALSVRPI [GGGGG.37],Clear
11,FQSLCQAPPLLKDKVLTALE [GGGGG.8],Clear
12,RVGDLSPKQKEALAKPEA [GGGGG.27],Clear
13,ARPPGGSGPLRVLIPDLQL [GGGGG.3],Clear
14,SAVMQEEI [GGGGG.38],Cloudy
15,IQSIYGGLPKVPAKPKEPTIPH [GGGGG.23],Clear
16,FETTTGFDPHSGTPLSDHEAL [GGGGG.7],Clear
17,CC(C)C[C@H](NC(=O)[C@@H](NC(=O)[C@H](Cc1c[nH]c2ccccc12)NC(=O)[C@H](C)NC(=O)[C@H](C)NC(=O)[C@@H](NC(=O)[C@H](Cc1ccccc1)NC(=O)[C@H](CCCCN)NC(=O)[C@H](C)N)C(C)C)[C@@H](C)O)C(=O)N[C@@H](CCCCN)C(=O)N[C@@H](C)C(=O)N[C@@H](C)C(=O)N[C@@H](C)C(=O)O [GGGGG.51],Clear
18,HLINYQDDAELATHALPELTKLLNDEDPV [GGGGG.14],Clear
19,CC[C@H](C)[C@H](NC(=O)[C@H](C)NC(=O)CNC(=O)[C@H](CC(C)C)NC(=O)[C@H](CC(C)C)NC(=O)[C@H](CC(=O)O)NC(=O)[C@H](CS)NC(=O)[C@H](CO)NC(=O)[C@H](CCC(=O)O)NC(=O)[C@H](C)NC(=O)[C@@H]1CCCN1C(=O)[C@@H](N)CO)C(=O)N[C@@H](CCC(N)=O)C(=O)N[C@H](C(=O)N[C@@H](CS)C(=O)N[C@H](C(=O)N[C@@H](CCCNC(=N)N)C(=O)N[C@@H](CCCCN)C(=O)N[C@@H](CO)C(=O)N[C@@H](CC(C)C)C(=O)NCC(=O)O)[C@@H](C)CC)[C@@H](C)O [GGGGG.11] (H-SPAESCDLLGAIQTCIRKSLG-OH; N-terminus and C-terminus assumed),Clear

# Same assay, conditions: Peptide synthesis engineering run batch for sample DDDDD_2020; appearance of the solution
row,Compound,Solubility
1,GQLFPYRARIEIKNKF [DDDDD.27],Clear
2,ARPEAQSRSSPTLES [DDDDD.12],Clear
3,AQSRSSPTL [DDDDD.36],Clear
4,KVTNCFSV [DDDDD.33],Clear
5,DSSIPSAATL [DDDDD.42],Clear
6,GQRRDRLLTVQALSGL [DDDDD.14],Clear
7,APPTRLAPPQRPPPPS [DDDDD.22],Clear
8,ASSQAGTVTL [DDDDD.38],Clear
9,LNGSEPTGAYSIKGFFADYEIPN [DDDDD.26],Clear
10,RRACGARTL [DDDDD.37],Clear
11,AVVSYVVADMKEMLPRS [DDDDD.25],Clear
12,KNPQMGDPGSLQPKSAETMNNIDRLRME [DDDDD.6],Clear
13,SAGENPLEEEE [DDDDD.43],Clear
14,RDILELGGPEEDAASGTISKKD [DDDDD.30],Clear
15,FGALHEDANKVIKPTSSNTA [DDDDD.5],Clear
16,LQMLCPQEAPQILSRLEAVR [DDDDD.7],Clear
17,SQAGTVTL [DDDDD.31],Clear
18,NTSALPLVSL [DDDDD.41],Clear
19,QELSPEKLKSWGGSLLGPWLSSGLKPLK [DDDDD.18],Clear
20,KDKIWLRRTKPSKHQYQICLAIDDSSSM [DDDDD.17],Clear
21,EAQSRSSPTL [DDDDD.40],Clear

# Same assay, conditions: Peptide synthesis engineering run batch for sample FFFFF; appearance of the solution
row,Compound,Solubility
1,NSLTSSVL [FFFFF.45],Clear
2,SLLLQEEEL [FFFFF.39],Cloudy
3,NSASMKQAL [FFFFF.47],Clear
4,PTLPQPASHFSPPPPPPPLPP [FFFFF.5],Clear
5,YKTDLHSL [FFFFF.37],Clear
6,RSTTKSPGPSRHSKSPASTSSVN [FFFFF.21],Clear
7,LGIGGLQDL [FFFFF.49],Clear
8,KLESTVGSPKKPLSDLGKLS [FFFFF.22],Clear
9,CC(C)C[C@H](NC(=O)[C@H](CS)NC(=O)[C@H](CS)NC(=O)[C@H](CCC(=O)O)NC(=O)[C@H](Cc1c[nH]c2ccccc12)NC(=O)[C@H](Cc1ccccc1)NC(=O)[C@H](CCC(N)=O)NC(=O)[C@H](C)NC(=O)[C@@H](N)CC(C)C)C(=O)O [FFFFF.38] (H-LAQFWECCL-OH; N-terminus and C-terminus assumed),Cloudy
10,MILASPRYVDQVTEFLQQKLK [FFFFF.18],Clear
11,FLSPGQLLQEPRTSLLIINNT [FFFFF.20],Cloudy
12,CC(C)C[C@H](NC(=O)[C@H](CS)NC(=O)[C@H](CS)NC(=O)[C@H](CCC(=O)O)NC(=O)[C@H](Cc1c[nH]c2ccccc12)NC(=O)[C@H](Cc1ccccc1)NC(=O)[C@H](CCC(N)=O)NC(=O)[C@H](C)N)C(=O)O [FFFFF.41] (H-AQFWECCL-OH; N-terminus and C-terminus assumed),Cloudy
13,HKDAVTCVNFSSSGHLLASGSR [FFFFF.29],Clear
14,LLLQEEEL [FFFFF.42],Clear
